Among the data in patent US20080280933A1, “BENZIMIDAZOLYL COMPOUNDS” (priority 2006, published 2008) are EC50 values, retold here.

The target of the first assay is T1, mGluR2 receptor (metabotropic glutamate receptor 2) (Homo sapiens, UniProt Q14416).
T1 construct: expressed in transfected cells
T1 sequence (Q14416 19-872, species assumed): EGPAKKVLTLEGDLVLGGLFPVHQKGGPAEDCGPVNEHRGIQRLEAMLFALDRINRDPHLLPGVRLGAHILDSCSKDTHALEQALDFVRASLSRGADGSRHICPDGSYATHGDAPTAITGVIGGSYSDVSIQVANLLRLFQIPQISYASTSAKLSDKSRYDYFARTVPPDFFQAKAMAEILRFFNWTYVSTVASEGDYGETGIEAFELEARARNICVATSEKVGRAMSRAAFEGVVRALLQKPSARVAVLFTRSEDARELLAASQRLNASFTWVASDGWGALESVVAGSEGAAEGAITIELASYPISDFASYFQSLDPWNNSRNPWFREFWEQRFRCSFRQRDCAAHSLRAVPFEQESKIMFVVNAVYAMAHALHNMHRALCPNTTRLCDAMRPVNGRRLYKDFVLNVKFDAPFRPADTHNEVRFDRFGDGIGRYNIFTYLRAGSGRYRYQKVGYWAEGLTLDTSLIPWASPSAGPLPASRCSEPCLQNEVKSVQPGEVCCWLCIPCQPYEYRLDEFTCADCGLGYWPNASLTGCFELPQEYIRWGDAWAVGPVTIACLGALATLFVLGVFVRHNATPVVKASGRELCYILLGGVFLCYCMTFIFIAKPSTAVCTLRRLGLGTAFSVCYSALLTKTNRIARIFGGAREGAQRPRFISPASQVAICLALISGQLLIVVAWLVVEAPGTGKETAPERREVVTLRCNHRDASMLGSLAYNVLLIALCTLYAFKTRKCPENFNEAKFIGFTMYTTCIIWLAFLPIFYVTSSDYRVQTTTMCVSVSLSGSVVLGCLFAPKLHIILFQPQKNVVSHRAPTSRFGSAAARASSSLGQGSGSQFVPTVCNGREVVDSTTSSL
Briefly: mGluR2 Potentiator Screen, FLIPR, EC10-EC20 glutamate challenge. The assay is classed as cell-based. As to conditions: mGluR2 potentiator screen, Table 7; read-out: EC50. In short, it runs like this:
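HEK cells stably co-expressing mGluR2 and Gα15, kept glutamine-free overnight, were loaded with Fluo-4 plus probenecid and GPT/pyruvate. Compounds (top 10 μM) were added ≥30 min before an EC10–EC20 glutamate challenge. Peak FLIPR fluorescence ratios were curve-fitted, excluding points above maximal effect, with maxima from on-plate standards.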
One may read the EC50 as the concentration needed to bring the measured effect to its halfway point. In the case of `CCCCN1CC2(CCN(Cc3nc4ccccc4n3C)CC2)c2cc(C)cc(C)c21` [compound 149], the EC50 worked out at 1.64 µM.

In the case of `Cn1c(CN2CCC(c3ccccc3)C2)nc2ccccc21` (centres unmarked) [compound 151], the EC50 worked out at 4.1 µM.

With `Cn1c(CN2CCC(c3ccccc3Cl)C2)nc2ccccc21` (centres unmarked) [compound 152], the EC50 was found to be 0.371 µM.

`COC(=O)[C@H]1CN(Cc2nc3ccccc3n2C)C[C@@H]1c1ccc(C(F)(F)F)cc1` [compound 153]: the EC50 was determined as 4.79 µM.

`COc1ccc(OC)c(C2CCN(Cc3nc4ccccc4n3C)C2)c1` (centres unmarked) [compound 154]: the EC50 stood at 0.285 µM.

`Cn1c(CN2CCC(c3ccc(F)cc3)C2)nc2ccccc21` (centres unmarked) [compound 155]: the EC50 came out at 1.65 µM.

On to `COC(=O)[C@H]1CN(Cc2nc3ccccc3n2C)C[C@@H]1c1ccc(Cl)cc1` [compound 156], for which the half-maximal effective concentration (EC50) was 8.55 µM.

For `Cn1c(CN2CCC(c3ccccc3F)CC2)nc2c(Br)cccc21` [compound 157], the EC50 was found to be 0.836 µM.

Take `Cn1c(CN2CCC(Cc3ccccc3)C2)nc2ccccc21` (centres unmarked) [compound 158]: the 50% effective concentration (EC50) turned out to be 0.865 µM.

On to `Cn1c(CN2CCC(c3ccccc3Cl)CC2)nc2c(Br)cccc21` [compound 160], for which the concentration giving a half-maximal response (EC50) was 0.862 µM.

Consider `Cn1c(CN2CCC(c3ccccc3Cl)CC2)nc2ccccc21` [compound 161], for which the concentration for a half-maximal effect (EC50) is 0.144 µM.

Consider `Cn1c(CN2CCC(c3cccc(C(F)(F)F)c3)CC2)nc2ccccc21` [compound 162], for which the EC50 is 0.254 µM.

Consider `COc1ccc(OC)c(C2CCN(Cc3nc4ccccc4n3C)CC2)c1` [compound 163], for which the EC50 turned out to be 0.928 µM.

Take `Cn1c(CN2CCC(c3ccc(C(F)(F)F)cc3)CC2)nc2c(Br)cccc21` [compound 164]: the half-maximal effective concentration (EC50) was determined as 0.838 µM.

As for `COc1ccc(OC)c(C2CCN(Cc3nc4c(Br)cccc4n3C)CC2)c1` [compound 165], the EC50 was determined as 2.66 µM.

As to `Cn1c(CN2CCC(c3ccc(C(F)(F)F)cc3)CC2)nc2ccccc21` [compound 166], the half-maximal effective concentration (EC50) was 0.0778 µM.

Turning to `Cn1c(CN2CCC(c3cccc(C(F)(F)F)c3)C(O)C2)nc2ccccc21` (centres unmarked) [compound 167], the 50% effective concentration (EC50) is 4.38 µM.

On to `Cn1c(CN2CC[C@@H]3c4ccccc4CC[C@@H]3C2)nc2c(Br)cccc21` [compound 168], for which the EC50 was determined as 1.2 µM.

Turning to `COc1ccccc1C1CCN(Cc2nc3c(Br)cccc3n2C)CC1` [compound 169], the EC50 stood at 1.23 µM.

Consider `Cn1c(CN2CCC(c3cccc4ccc(C(N)=O)cc34)CC2)nc2c(Br)cccc21` [compound 170], for which the EC50 stood at 8.09 µM.

Regarding `COc1cccc2c1CC[C@H]1CN(Cc3nc4ccccc4n3C)CC[C@H]21` [compound 171], the EC50 is 7.55 µM.

Take `Cn1c(CN2CCC(c3cc(Cl)ccc3F)CC2)nc2ccccc21` [compound 172]: the EC50 worked out at 0.00828 µM.

For `CC[C@H](C)COc1ccc(Cl)cc1C1CCN(Cc2nc3ccccc3n2CCF)CC1` [compound 173], the half-maximal effective concentration (EC50) was determined as 1.7 µM.

`CC[C@H](C)COc1ccc(Cl)cc1C1CCN(Cc2nc3ccccc3n2C)CC1` [compound 174]: the EC50 came out at 0.447 µM.

On to `CC[C@H](C)COc1ccc(Cl)cc1C1CCN(Cc2nc3ccccc3n2CF)CC1` [compound 175], for which the EC50 was determined as 8.76 µM.

Consider `CC[C@H](C)COc1ccc(Cl)cc1C1CCN(Cc2nc3ccccc3n2CCOC)CC1` [compound 176], for which the concentration for a half-maximal effect (EC50) was 1.34 µM.

Regarding `CC(C)COc1ccc(Cl)cc1C1CCN(Cc2nc3ccccc3n2CF)CC1` [compound 177], the concentration giving a half-maximal response (EC50) came to 3.47 µM.

As to `CC(C)COc1ccc(Cl)cc1C1CCN(Cc2nc3ccccc3n2C)CC1` [compound 178], the concentration for a half-maximal effect (EC50) was found to be 0.499 µM.

Take `CC(C)COc1ccc(Cl)cc1C1CCN(Cc2nc3ccccc3n2C2CC2)CC1` [compound 179]: the EC50 worked out at 1.74 µM.

As to `COCCn1c(CN2CCC(c3cc(Cl)ccc3OCC(C)C)CC2)nc2ccccc21` [compound 180], the EC50 came to 3.02 µM.

Turning to `CC(C)COc1ccc(Cl)cc1C1CCN(Cc2nc3ccccc3n2CCF)CC1` [compound 181], the 50% effective concentration (EC50) was found to be 2.11 µM.

For `CCCCOc1ccc(Cl)cc1C1CCN(Cc2nc3ccccc3n2CF)CC1` [compound 182], the EC50 worked out at 0.355 µM.

As to `CCCCOc1ccc(Cl)cc1C1CCN(Cc2nc3ccccc3n2C2CC2)CC1` [compound 183], the half-maximal effective concentration (EC50) was 1.52 µM.

As to `CCCCOc1ccc(Cl)cc1C1CCN(Cc2nc3ccccc3n2CCOC)CC1` [compound 184], the EC50 turned out to be 0.479 µM.

Turning to `CCCCOc1ccc(Cl)cc1C1CCN(Cc2nc3ccccc3n2C)CC1` [compound 185], the concentration for a half-maximal effect (EC50) stood at 0.138 µM.

Turning to `CCCCOc1ccc(Cl)cc1C1CCN(Cc2nc3ccccc3n2CCF)CC1` [compound 186], the EC50 is 0.246 µM.

For the compound `Clc1ccc(OCCC2CC2)c(C2CCN(Cc3nc4ccccc4n3C3CC3)CC2)c1` [compound 187], the EC50 was found to be 0.777 µM.

In the case of `FCn1c(CN2CCC(c3cc(Cl)ccc3OCCC3CC3)CC2)nc2ccccc21` [compound 188], the 50% effective concentration (EC50) turned out to be 0.566 µM.

As to `Cn1c(CN2CCC(c3cc(Cl)ccc3OCCC3CC3)CC2)nc2ccccc21` [compound 189], the EC50 was 0.153 µM.

`FCCn1c(CN2CCC(c3cc(Cl)ccc3OCCC3CC3)CC2)nc2ccccc21` [compound 190]: the EC50 was found to be 0.141 µM.

As for `COCCn1c(CN2CCC(c3cc(Cl)ccc3OCCC3CC3)CC2)nc2ccccc21` [compound 191], the EC50 came to 0.136 µM.

On to `Clc1ccc(OCC2CCC2)c(C2CCN(Cc3nc4ccccc4n3C3CC3)CC2)c1` [compound 192], for which the half-maximal effective concentration (EC50) was found to be 2.26 µM.

On to `FCn1c(CN2CCC(c3cc(Cl)ccc3OCC3CCC3)CC2)nc2ccccc21` [compound 193], for which the half-maximal effective concentration (EC50) is 2.34 µM.

Regarding `Cn1c(CN2CCC(c3cc(Cl)ccc3OCC3CCC3)CC2)nc2ccccc21` [compound 194], the concentration for a half-maximal effect (EC50) stood at 0.473 µM.

`FCCn1c(CN2CCC(c3cc(Cl)ccc3OCC3CCC3)CC2)nc2ccccc21` [compound 195]: the EC50 turned out to be 1.39 µM.

For the compound `COCCn1c(CN2CCC(c3cc(Cl)ccc3OCC3CCC3)CC2)nc2ccccc21` [compound 196], the 50% effective concentration (EC50) was determined as 0.719 µM.

As for `CC1CC1COc1ccc(Cl)cc1C1CCN(Cc2nc3ccccc3n2CF)CC1` (centres unmarked) [compound 197], the EC50 amounted to 3.26 µM.

For the compound `CC1CC1COc1ccc(Cl)cc1C1CCN(Cc2nc3ccccc3n2C2CC2)CC1` (centres unmarked) [compound 198], the half-maximal effective concentration (EC50) was found to be 2.25 µM.

`CC1CC1COc1ccc(Cl)cc1C1CCN(Cc2nc3ccccc3n2C)CC1` (centres unmarked) [compound 199]: the concentration giving a half-maximal response (EC50) was 0.39 µM.

Take `CC1CC1COc1ccc(Cl)cc1C1CCN(Cc2nc3ccccc3n2CCF)CC1` (centres unmarked) [compound 200]: the 50% effective concentration (EC50) came out at 1.55 µM.

As to `COCCn1c(CN2CCC(c3cc(Cl)ccc3OCC3CC3C)CC2)nc2ccccc21` (centres unmarked) [compound 201], the EC50 stood at 0.623 µM.

Turning to `Clc1ccc(OCC2CCOC2)c(C2CCN(Cc3nc4ccccc4n3C3CC3)CC2)c1` (centres unmarked) [compound 202], the EC50 stood at 2.88 µM.

The same assay, now with this note: read-out: EC50.
In the case of `Cc1ccc2c(c1)C1(CCN(Cc3nc4ccccc4n3C)CC1)CN2CC1CCCO1` (centres unmarked) [compound 124], the EC50 was 4.11 µM.

On to `Cc1cc(C)c2c(c1)C1(CCN(Cc3nc4ccccc4n3C)CC1)CN2CC(C)C` [compound 125], for which the EC50 was 3.93 µM.

With `CCC(CC)CN1CC2(CCN(Cc3nc4ccccc4n3C)CC2)c2cc(C)cc(C)c21` [compound 126], the EC50 turned out to be 6.01 µM.

`CCCCN1CC2(CCN(Cc3nc4ccccc4n3C)CC2)c2cc(Cl)ccc21` [compound 127]: the EC50 turned out to be 2.81 µM.

On to `Cn1c(CN2CCC3(CC2)CNc2ccc(Cl)cc23)nc2ccccc21` [compound 128], for which the EC50 was above 8.98 µM.

For `Cn1c(CN2CCC3(CC2)CN(CC2CC2)c2ccc(Cl)cc23)nc2ccccc21` [compound 129], the EC50 is 2.51 µM.

`CCCN1CC2(CCN(Cc3nc4ccccc4n3C)CC2)c2ccccc21` [compound 130]: the half-maximal effective concentration (EC50) is 3.08 µM.

In the case of `CN1CC2(CCN(Cc3nc4ccccc4n3C)CC2)c2cc(Cl)ccc21` [compound 131], the EC50 is 1.76 µM.

As to `CCCCN1CC2(CCN(Cc3nc4ccccc4n3C)CC2)c2ccccc21` [compound 132], the EC50 was 1.34 µM.

Turning to `CCC(C)CN1CC2(CCN(Cc3nc4ccccc4n3C)CC2)c2ccccc21` (centres unmarked) [compound 133], the 50% effective concentration (EC50) worked out at 6.16 µM.

Turning to `Cn1c(CN2CCC3(CC2)CN(CC2CC2)c2ccccc23)nc2ccccc21` [compound 134], the EC50 was 7.38 µM.

Turning to `CN1CC2(CCN(Cc3nc4ccccc4n3C)CC2)c2ccccc21` [compound 135], the 50% effective concentration (EC50) stood at 2.35 µM.

As for `CN1CC2(CCN(Cc3nc4ccccc4n3C)CC2)c2cc(F)ccc21` [compound 136], the EC50 stood at 2.65 µM.

Take `CCCN1CC2(CCN(Cc3nc4ccccc4n3C)CC2)c2cc(F)ccc21` [compound 137]: the EC50 is above 7.89 µM.

`Cn1c(CN2CCC3(CC2)CN(CC2CC2)c2ccc(F)cc23)nc2ccccc21` [compound 138]: the EC50 came out at 8.59 µM.

Regarding `CCCCN1CC2(CCN(Cc3nc4ccccc4n3C)CC2)c2cc(C)ccc21` [compound 139], the concentration for a half-maximal effect (EC50) was 1.97 µM.

Take `CCCCN1CC2(CCN(Cc3nc4ccccc4n3C)CC2)c2cc(F)ccc21` [compound 140]: the EC50 worked out at 2.12 µM.

On to `CCC(C)CN1CC2(CCN(Cc3nc4ccccc4n3C)CC2)c2cc(C)ccc21` (centres unmarked) [compound 141], for which the EC50 came out at 5.67 µM.

As to `Cc1ccc2c(c1)C1(CCN(Cc3nc4ccccc4n3C)CC1)CN2CC1CC1` [compound 142], the half-maximal effective concentration (EC50) was 3.02 µM.

`Cc1ccc2c(c1)C1(CCN(Cc3nc4ccccc4n3C)CC1)CN2` [compound 143]: the EC50 was above 8.67 µM.

For the compound `CCCN1CC2(CCN(Cc3nc4ccccc4n3C)CC2)c2cc(C)ccc21` [compound 144], the 50% effective concentration (EC50) came out at 2.37 µM.

For `CCCN1CC2(CCN(Cc3nc4ccccc4n3C)CC2)c2cc(C)cc(C)c21` [compound 145], the EC50 was 2.69 µM.

Regarding `Cc1ccc2c(c1)C1(CCN(Cc3nc4ccccc4n3C)CC1)CN2C` [compound 146], the 50% effective concentration (EC50) amounted to 1.67 µM.

For the compound `Cc1cc(C)c2c(c1)C1(CCN(Cc3nc4ccccc4n3C)CC1)CN2` [compound 147], the concentration for a half-maximal effect (EC50) was found to be 5.81 µM.

Regarding `CCC(C)CN1CC2(CCN(Cc3nc4ccccc4n3C)CC2)c2cc(C)cc(C)c21` (centres unmarked) [compound 148], the concentration giving a half-maximal response (EC50) turned out to be 4.73 µM.
